This is an account of results in paper PMC9645260, “Small-molecule inhibitors of P-Rex guanine-nucleotide exchange factors” (Small GTPases, 2022).

In this experiment the test system is primary mouse neutrophils. The experiment can be described thus: Neutrophil ROS production, PMA-stimulated. To be noted: 1 µM, 500 nM PMA. It is filed as cell-based. As for the experimental part: Prex^−/− mice (Prex1^−/−Prex2^−/−) with general P-Rex deficiency were described previously and were compared to Prex^+/+ (Prex1^+/+Prex2^+/+) control mice on the same genetic background (C57Bl6/129Ola backcrossed seven times to C57Bl6). Mice were group-housed (up to 5) under specific opportunistic pathogen-free isolator conditions in Babraham’s small animal barrier facility that uses 12 h light/dark cycles with dusk and dawn settings, and were fed chow diet and water ad libitum. Mice from both sexes were used for experiments, at young-adult age (between 8 and 14 weeks), and were sex- and age-matched between genotypes within experiments. […]
Mature primary neutrophils were isolated from the bone marrow of age- and sex-matched Prex^+/+ and Prex^−/− mice freshly each day at 4°C, using Percoll^Plus (GE Healthcare) gradient, as described, using endotoxin-free media throughout. Isolated neutrophils were 70–90% pure, as assessed by KwikDiff staining of cytospins. ROS production was measured by real-time chemiluminescence assay as described, except that neutrophils were incubated with PREX-in1 before the assay. […] Real-time ROS production was recorded in a Berthold MicroLumat Plus luminometer (Berthold Technologies) at 37°C, for 2.5 min with fMLP stimulation or for 10 min with PMA stimulation. […]

Molecules are shown by their SMILES.

Regarding `COc1ccc(-c2[nH]nc3c2C(c2ccc(-c4ccc(Cl)cc4)o2)C(C#N)=C(N)O3)cc1` (stereo not shown) [PREX-in1, 6-amino-4-[5-(4-chlorophenyl)-2-furyl]-3-(4-methoxyphenyl)-2,4-dihydropyrano[2,3-c]pyrazole-5-carbonitrile], the “effect on PMA-induced ROS response” value is “unaffected”.
